A short description of data set [1]: Metabolic stability in mouse hepatic microsome. As to conditions: male, mouse, liver microsomes, pH 7.4; Table 9, thioether versus sulfoxide; read-out: Mouse Hepatic Microsome CLh, int. It counts as in vitro ADME. As for the experimental part: The obtained compound was metabolically reacted at a concentration of 2 uM with mouse serum (male/female mixed, Valley Biomedical, USA) (adjusted to pH 7.4 with 33.5 mM HEPES buffer) for two hours. Deproteinization treatment with acetonitrile was provided over time, the amount of the remaining unchanged compound was analyzed using LC/MS, and the metabolic half-life (t1/2) was calculated. A microsome solution prepared at 0.5 mg protein/mL from mouse hepatic microsome and small intestinal microsome (male, XENOTECH, USA) using 100 mM phosphate buffer (pH 7.4) was metabolically reacted with the compound at a concentration of 1 uM for 30 minutes in the presence or absence of NADPH. Deproteinization treatment with acetonitrile was provided over time, the amount of the remaining unchanged compound was analyzed using LC/MS, and the hepatic-intrinsic clearance (CLh, int) and the small intestinal-intrinsic clearance (CLg, int) were calculated (Table 7). Such peptides were sufficiently slowly metabolized by hydrolysis with peptidases or the like in mouse sera and microsomes, contrary to peptides composed of natural amino acids having low lipophilicity.
Metabolic stability tests were carried out in the same manner as shown in 2-1.
(In general: Liver microsomes are a subcellular fraction often used to study metabolism.)

The nature of data set [2]: Metabolic stability in human hepatic microsome. Format: in vitro ADME. As to conditions: microsomes.
Data set [3] is described as follows: PAMPA (parallel artificial membrane permeability assay). It counts as in vitro ADME. As to conditions: PAMPA. In a few lines:
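Artificial membrane was 10% (w/v) egg lecithin plus 0.5% (w/v) cholesterol in dodecane on a PVDF filter. A 10 mM DMSO stock was added at 0.5% (v/v) to donor buffer (50 mM MOPSO, pH 6.5, 5.0% glycocholic acid). After 18 h at 37 °C, LC/MS or LC/UV gave donor and acceptor levels for Pe.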

A further data set can be described thus: in vivo. To be noted: male, C57BL/6J, mouse, 20 mg/kg.
Data set [4] is described as follows: Mouse PK test of peptides (intravenous and oral administration). To be noted: male, C57BL/6J, in vivo, 20 mg/kg.
The mark [5] stands for this setting: pH 7.4, human hepatic microsome, NADPH(+), read-out: CL NADPH(+).
Where [6] appears, read: membrane permeation rate (Pe), 50 mM MOPSO buffer pH 6.5 with 5.0% glycocholic acid, 37° C., 18 hours, read-out: iPAMPA Pe.

Experimental findings from patent US9409952B2, “Peptide-compound cyclization method” (Chugai Seiyaku Kabushiki Kaisha, priority 2011, dated 2016) are described below.

Structures are written as SMILES. Like-named read-outs stand apart in the source and are kept apart here. Starred links: 1 amine or outer side, 2 acyl side, 3 side chain; linkers in the order of their positions; H or OH if unused. Positions of bridges follow the written chain, without caps; N, C: chain ends. Non-standard residues stand in square brackets, D forms with d. Residues, ends and D or L forms follow the SMILES beside them. *: point of attachment. Cys(O)(CH2CO) = O=C([C@H](C[S+]([O-])CC(=O)[*:3])N[*:1])[*:2]; NMeF = CN[C@@H](Cc1ccccc1)C(=O)O; NMeI = CC[C@H](C)[C@H](NC)C(=O)O; NMeL = CN[C@@H](CC(C)C)C(=O)O; NMeV = CN[C@H](C(=O)O)C(C)C; NMeA = CN[C@@H](C)C(=O)O; Piperidide = C1CCN(*)CC1; NPrGly = CCCNCC(=O)O; Sar = CNCC(=O)O; tBu = CC(C)(C)*

Turning to `CC[C@H](C)[C@H]1C(=O)N[C@H](C(=O)N2CCCCC2)C[S+]([O-])CC(=O)N(C)[C@@H](Cc2ccccc2)C(=O)N(C)[C@@H](C)C(=O)N(C)[C@@H](Cc2ccccc2)C(=O)N(C)[C@@H](CC(C)C)C(=O)N[C@@H]([C@@H](C)O)C(=O)N(C)CC(=O)N(C)[C@@H](CC(C)C)C(=O)N[C@@H](COC(C)(C)C)C(=O)N1C` (stereo partly drawn) [Compound P-116, (5S,8S,11S,14S,17S,23S,26S,29S,32R)-5,11-dibenzyl-26-(tert-butoxymethyl)-29-((S)-sec-butyl)-17-((R)-1-hydroxyethyl)-14,23-diisobutyl-4,7,8,10,13,19,22,28-octamethyl-32-(piperidine-1-carbonyl)-1-thia-4,7,10,13,16,19,22,25,28,31-decaazacyclotritriacontane-3,6,9,12,15,18,21,24,27,30-decone 1-oxide] ([NMeF][NMeA][NMeF][NMeL]T[Sar][NMeL]S(tBu)[NMeI][Cys(O)(CH2CO)]-Piperidide; lactam N-10), the microsomal CLint at 1 uM in data set [1] was 56.5 µL/min/mg.
For the compound `CC[C@H](C)[C@H]1C(=O)N[C@H](C(=O)N2CCCCC2)C[S+]([O-])CC(=O)N(C)[C@@H](C)C(=O)N[C@@H](Cc2ccccc2)C(=O)N(C)[C@@H](CC(C)C)C(=O)N[C@@H]([C@@H](C)O)C(=O)N(C)CC(=O)N(C)[C@@H](CC(C)C)C(=O)N[C@@H](COC(C)(C)C)C(=O)N1C` (stereo partly drawn) [Compound P-117, (5S,8S,11S,14S,20S,23S,26S,29R)-8-benzyl-23-(tert-butoxymethyl)-26-((S)-sec-butyl)-14-((R)-1-hydroxyethyl)-11,20-diisobutyl-4,5,10,16,19,25-hexamethyl-29-(piperidine-1-carbonyl)-1-thia-4,7,10,13,16,19,22,25,28-nonaazacyclotriacontane-3,6,9,12,15,18,21,24,27-nonone 1-oxide] ([NMeA]F[NMeL]T[Sar][NMeL]S(tBu)[NMeI][Cys(O)(CH2CO)]-Piperidide; lactam N-9), the microsomal CLint at 1 uM in data set [1] is 36 µL/min/mg.
One may read the AUC as the area under the concentration-time curve, a measure of exposure. Usually half-life stands for the time in which the quantity being followed falls by half. Low readings indicate rapid decline, high ones slow decline. What is called CL/F is the apparent clearance, not corrected for the fraction that reaches the circulation. As a reminder, the Cmax is the maximum level reached in the sampled fluid or tissue. Usually Tmax stands for the time from dosing to the highest level. The bioavailability is dose-corrected exposure relative to a reference, in per cent. A high value points to much systemic uptake. The compound `CC[C@H](C)[C@H]1C(=O)N[C@@H](COC(C)(C)C)C(=O)N(C)[C@@H](Cc2ccccc2)C(=O)N(C)[C@@H](C(C)C)C(=O)N[C@H](C(=O)N2CCCCC2)CC(=O)N(C)[C@@H](C)C(=O)N(C)[C@@H](Cc2ccccc2)C(=O)N[C@@H](CC(C)C)C(=O)N(C)[C@@H](CC(C)C)C(=O)N[C@@H]([C@@H](C)O)C(=O)N(C)CC(=O)N1C` [DP-47] ([NMeA][NMeF]L[NMeL]T[Sar][NMeI]S(tBu)[NMeF][NMeV]D-Piperidide; lactam N-11) yielded a microsomal CLint at 1 uM in data set [2] (human, pH 7.4, CL NADPH(+)) of 37 µL/min/mg. Besides, the Papp at 18 hours, 50 µM in data set [3] (pH 6.5) worked out at 50 ×10⁻⁶ cm/s. In “in vivo” (iv), this compound displayed an AUC of 202000 ng·h/mL, a C0 of 107000 ng/mL, a Vd of 0.381 L/kg and a clearance of 1.66 mL/min/kg. Further, the half-life in the data set “in vivo” (iv) was 2.68 h. Further, in “in vivo” (po), the AUC stood at 38000 ng·h/mL, the CL/F was 8.86 mL/min/kg, the Cmax turned out to be 4490 ng/mL and the Tmax came out at 2.67 h. Further, in the data set “in vivo” (po), the bioavailability came out at 18.8% and the half-life was 3.88 h.
Consider `CC(C)C[C@@H]1NC(=O)[C@H](Cc2ccccc2)N(C)C(=O)[C@H](Cc2ccccc2)N(C)C(=O)[C@H](CC(C)C)NC(=O)[C@H](C)N(C)C(=O)[C@H]([C@@H](C)O)NC(=O)[C@H](C)N(C)C(=O)C[C@@H](C(=O)N2CCCCC2)NC(=O)[C@H](CC(C)C)N(C)C1=O` [DP-125] ([NMeA]T[NMeA]L[NMeF][NMeF]L[NMeL]D-Piperidide; lactam N-9), for which the microsomal CLint at 1 uM in data set [2] (setting [5]) came to 189 µL/min/mg. For the same compound, in data set [3] (setting [6]), the Papp at 18 hours, 50 µM turned out to be 55 ×10⁻⁶ cm/s. In data set [4] (iv), this compound yielded an AUC of 35400 ng·h/mL, a C0 of 46400 ng/mL, a Vd of 0.545 L/kg and a clearance of 9.49 mL/min/kg. The compound further gave a half-life in data set [4] (iv) of 1.44 h. Besides, in data set [4] (po), the AUC came out at 12100 ng·h/mL, the apparent clearance CL/F is 27.5 mL/min/kg, the Cmax amounted to 3090 ng/mL and the Tmax was 3.5 h. Besides, the bioavailability in data set [4] (po) stood at 34.6%.
With `CC[C@H](C)[C@H]1C(=O)N[C@H](C(=O)N2CCCCC2)CC(=O)N[C@H](C(C)C)C(=O)N(C)[C@@H](Cc2ccccc2)C(=O)N(C)[C@@H](CC(C)C)C(=O)N[C@@H]([C@@H](C)O)C(=O)N(C)CC(=O)N(C)[C@@H](CC(C)C)C(=O)N[C@@H](COC(C)(C)C)C(=O)N1C` [DP-265] ([dV][NMeF][NMeL]T[Sar][NMeL]S(tBu)[NMeI]D-Piperidide; lactam N-9), the microsomal CLint at 1 uM in data set [2] (setting [5]) turned out to be 58 µL/min/mg. The Papp at 18 hours, 50 µM in data set [3] (setting [6]) came out at 42 ×10⁻⁶ cm/s. Besides, in data set [4] (iv), the AUC was found to be 35300 ng·h/mL, the C0 is 58300 ng/mL, the Vd stood at 0.713 L/kg and the clearance turned out to be 9.48 mL/min/kg. Also, in data set [4] (iv), the half-life was 1.82 h. Moreover, in data set [4] (po), the AUC worked out at 5120 ng·h/mL, the CL/F was determined as 65.1 mL/min/kg, the Cmax was found to be 2850 ng/mL and the time of peak concentration (Tmax) was 0.67 h. In data set [4] (po), this compound gave a bioavailability of 14.5% and a half-life of 1.96 h.
Turning to `CCCN1CC(=O)N(C)[C@@H](CC(C)C)C(=O)N[C@@H]([C@@H](C)O)C(=O)N(C)[C@@H](C)C(=O)N(C)[C@@H](CC(C)C)C(=O)N(C)[C@@H]([C@@H](C)CC)C(=O)N[C@@H](COC(C)(C)C)C(=O)N[C@H](C(=O)N2CCCCC2)CC(=O)N(C)[C@@H](C)C(=O)N(C)[C@@H](Cc2ccccc2)C1=O` [DP-540] ([NMeA][NMeF][NPrGly][NMeL]T[NMeA][NMeL][NMeI]S(tBu)D-Piperidide; lactam N-10), the microsomal CLint at 1 uM in data set [2] (setting [5]) was 67 µL/min/mg. Further, the Papp at 18 hours, 50 µM in data set [3] (setting [6]) worked out at 36 ×10⁻⁶ cm/s. In data set [4] (iv), the AUC turned out to be 41400 ng·h/mL, the C0 worked out at 48100 ng/mL, the Vd was 0.803 L/kg and the clearance turned out to be 8.16 mL/min/kg. The same compound showed a half-life in data set [4] (iv) of 1.63 h. In addition, in data set [4] (po), the exposure (AUC) came out at 9800 ng·h/mL, the CL/F turned out to be 35.8 mL/min/kg, the concentration peaked (Cmax) at 1870 ng/mL and the Tmax is 1.83 h. In data set [4] (po), this compound showed a bioavailability of 23.7% and a half-life of 3.11 h.
Turning to `CCCN1CC(=O)N(C)[C@@H](CC(C)C)C(=O)N[C@@H](COC(C)(C)C)C(=O)N(C)[C@@H](CC(C)C)C(=O)N[C@H](C(=O)N2CCCCC2)CC(=O)N[C@H](C)C(=O)N(C)[C@@H](C)C(=O)N(C)[C@@H](Cc2ccccc2)C(=O)N(C)[C@@H](CC(C)C)C(=O)N[C@@H]([C@@H](C)O)C1=O` [DP-547] ([dA][NMeA][NMeF][NMeL]T[NPrGly][NMeL]S(tBu)[NMeL]D-Piperidide; lactam N-10), in data set [2] (setting [5]), the microsomal CLint at 1 uM worked out at 33 µL/min/mg. Also, the Papp at 18 hours, 50 µM in data set [3] (setting [6]) came out at 34 ×10⁻⁶ cm/s. For the same compound, in data set [4] (iv), the exposure (AUC) stood at 37200 ng·h/mL, the C0 turned out to be 44500 ng/mL, the Vd was 0.541 L/kg and the clearance came to 8.98 mL/min/kg. This compound had a half-life in data set [4] (iv) of 1.1 h. For the same compound, in data set [4] (po), the AUC amounted to 4510 ng·h/mL, the CL/F was 74.6 mL/min/kg, the peak level (Cmax) was 1470 ng/mL and the Tmax is 1 h. In data set [4] (po), the bioavailability is 12.1% and the half-life was 1.84 h.
Turning to `CC[C@H](C)[C@H](NC(=O)[C@@H]1CCCN1C(=O)[C@@H]1CC(=O)N[C@@H](C)C(=O)N[C@@H](CC(C)C)C(=O)N(C)[C@@H]([C@@H](C)CC)C(=O)N[C@@H](C(C)C)C(=O)N(C)[C@@H](Cc2ccccc2)C(=O)N[C@@H](CC(C)C)C(=O)N(C)[C@@H](Cc2ccccc2)C(=O)N1)C(=O)N1CCCCC1` [DP-965] (AL[NMeI]V[NMeF]L[NMeF]DPI-Piperidide; lactam N-8), in data set [2] (setting [5]), the microsomal CLint at 1 uM turned out to be 56 µL/min/mg. In addition, the Papp at 18 hours, 50 µM in data set [3] (setting [6]) was 16 ×10⁻⁶ cm/s. In data set [4] (iv), this compound returned an AUC of 193000 ng·h/mL, a C0 of 171000 ng/mL, a Vd of 0.403 L/kg and a clearance of 1.73 mL/min/kg. Moreover, the half-life in data set [4] (iv) is 2.99 h. Besides, in data set [4] (po), the AUC stood at 13700 ng·h/mL, the CL/F came out at 28.9 mL/min/kg, the highest level (Cmax) was 1920 ng/mL and the Tmax was 2.67 h. Also, in data set [4] (po), the bioavailability is 7.12% and the half-life was 2.99 h.
